Assays:
Format in all cases: in vivo
[1] = system: undesirable plants of both the monocotyledonous and the dicotyledonous species; experiment: Herbicidal activity, general; details: for herbicidal activity: 16 pounds per acre
Text: All of the 3-substituted compounds of the pyrido [3,2-d]pyrimidine-2,4(1H,3H)-dione and lumazine families made from intermediate amides produced by the method of this invention have an unexpectedly high order of herbicidal activity.
In using the compound, seeds of the types of plants set forth in Table II were sown in fresh soil. In the preemergence test the soil was sprayed with a solution of the test compound immediately after the seeds were planted, and before any noticeable growth developed. The solution was about a 2 percent by weight solution of the compound in acetone and/or alcohol. The compound was applied at the rate of 16 pounds per acre of soil surface.
Approximately 3 weeks after spray application, the herbicidal activity of the compound was determined by visual observation of the treated area in comparison with untreated control areas. These observations are reported below in Table II wherein the average activity rating is reported as the percent control of plant growth.
In the postemergence test the soil and developing plants were sprayed approximately 2 weeks after the seeds were sown. The compound was applied at the rate of 8 pounds per acre from about a 2 percent by weight solution of the test compound in acetone and/or alcohol. The postemergence herbicidal activity was measured in the same way as the preemergence activity; i.e. visual observation approximately 11 days after spraying, and expressed as the percent control of plant growth.

Nutgrass [2] = experiment: Preemergence herbicidal activity, % control of plant growth; details: pre-emergence, 504 h, 16 lb/acre, about 3 weeks
In short: (§1)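 Soil sprayed pre-emergence, right after sowing, at 16 lb/acre (≈2 wt% in acetone/alcohol). Scored visually at ~3 weeks vs untreated control as % growth control.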

Pigweed [3] = experiment: as above; details: Amaranthus retroflexus, pre-emergence, 504 h, 16 lb/acre, about 3 weeks
In short: as §1

Snapbeans [4] = experiment: as above; details: pre-emergence, 504 h, 16 lb/acre, about 3 weeks
In short: as §1

Cucumber [5] = experiment: as above; details: Cucumis sativus, pre-emergence, 504 h, 16 lb/acre, about 3 weeks
In short: as §1

Corn [6] = experiment: as above; details: Zea mays, pre-emergence, 504 h, 16 lb/acre, about 3 weeks
In short: as §1

Johnsongrass [7] = experiment: as above; details: Sorghum halepense, pre-emergence, 504 h, 16 lb/acre, about 3 weeks
In short: as §1

Curled Dock [8] = experiment: as above; details: pre-emergence, 504 h, 16 lb/acre, about 3 weeks
In short: as §1

Chickweed [9] = experiment: as above; details: pre-emergence, 504 h, 16 lb/acre, about 3 weeks
In short: as §1

Crabgrass [10] = experiment: as above; details: Digitaria sanguinalis, pre-emergence, 504 h, 16 lb/acre, about 3 weeks
In short: as §1

Velvetleaf [11] = experiment: as above; details: Abutilon theophrasti, pre-emergence, 504 h, 16 lb/acre, about 3 weeks
In short: as §1

Lambsquarters [12] = experiment: as above; details: Chenopodium album, pre-emergence, 504 h, 16 lb/acre, about 3 weeks
In short: as §1

Barnyard Grass [13] = experiment: as above; details: Echinochloa crus-galli, pre-emergence, 504 h; barnyard grass; 16 lb/acre; about 3 weeks
In short: as §1

Wild Oats [14] = experiment: as above; details: Avena fatua, pre-emergence, 504 h, 16 lb/acre, about 3 weeks
In short: as §1

Cheatgrass [15] = experiment: as above; details: Bromus tectorum, pre-emergence, 504 h, 16 lb/acre, about 3 weeks
In short: as §1

Yellow Rocket [16] = experiment: as above; details: pre-emergence, 504 h, 16 lb/acre, about 3 weeks
In short: as §1

Alfalfa [17] = experiment: as above; details: Medicago sativa, pre-emergence, 504 h, 16 lb/acre, about 3 weeks
In short: as §1

Foxtail [18] = experiment: as above; details: Setaria, pre-emergence, 504 h, 16 lb/acre, about 3 weeks
In short: as §1

Nutgrass [19] = experiment: Postemergence herbicidal activity, % control of plant growth; details: post-emergence, 264 h, 8 lb/acre, about 11 days
In short: (§2)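 Postemergence spray at 8 lb/acre onto soil and developing seedlings about 2 weeks after sowing; approx. 2% by weight solution in acetone and/or alcohol. Percent control estimated visually at approx. 11 days.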

Pigweed [20] = experiment: as above; details: Amaranthus retroflexus, post-emergence, 264 h, 8 lb/acre, about 11 days
In short: as §2

Snapbeans [21] = experiment: as above; details: post-emergence, 264 h, 8 lb/acre, about 11 days
In short: as §2

Cucumber [22] = experiment: as above; details: Cucumis sativus, post-emergence, 264 h, 8 lb/acre, about 11 days
In short: as §2

Corn [23] = experiment: as above; details: Zea mays, post-emergence, 264 h, 8 lb/acre, about 11 days
In short: as §2

Johnsongrass [24] = experiment: as above; details: Sorghum halepense, post-emergence, 264 h, 8 lb/acre, about 11 days
In short: as §2

Curled Dock [25] = experiment: as above; details: post-emergence, 264 h, 8 lb/acre, about 11 days
In short: as §2

Chickweed [26] = experiment: as above; details: post-emergence, 264 h, 8 lb/acre, about 11 days
In short: as §2

Crabgrass [27] = experiment: as above; details: Digitaria sanguinalis, post-emergence, 264 h, 8 lb/acre, about 11 days
In short: as §2

Velvetleaf [28] = experiment: as above; details: Abutilon theophrasti, post-emergence, 264 h, 8 lb/acre, about 11 days
In short: as §2

Lambsquarters [29] = experiment: as above; details: Chenopodium album, post-emergence, 264 h, 8 lb/acre, about 11 days
In short: as §2

Barnyard Grass [30] = experiment: as above; details: Echinochloa crus-galli, post-emergence, 264 h, 8 lb/acre, about 11 days
In short: as §2

Wild Oats [31] = experiment: as above; details: Avena fatua, post-emergence, 264 h, 8 lb/acre, about 11 days
In short: as §2

Cheatgrass [32] = experiment: as above; details: Bromus tectorum, post-emergence, 264 h, 8 lb/acre, about 11 days
In short: as §2

Yellow Rocket [33] = experiment: as above; details: post-emergence, 264 h, 8 lb/acre, about 11 days
In short: as §2

Alfalfa [34] = experiment: as above; details: Medicago sativa, post-emergence, 264 h, 8 lb/acre, about 11 days
In short: as §2

Foxtail [35] = experiment: as above; details: Setaria, post-emergence, 264 h, 8 lb/acre, about 11 days
In short: as §2

| Structure (SMILES) | herbicidal activity [1] | pest or weed control at 17933.6 g/ha (Nutgrass [2]) [%] | pest or weed control at 17933.6 g/ha (Pigweed [3]) [%] | pest or weed control at 17933.6 g/ha (Snapbeans [4]) [%] | pest or weed control at 17933.6 g/ha (Cucumber [5]) [%] | plant injury at 17933.6 g/ha (Corn [6]) [%] | pest or weed control at 17933.6 g/ha (Johnsongrass [7]) [%] | pest or weed control at 17933.6 g/ha (Curled Dock [8]) [%] | pest or weed control at 17933.6 g/ha (Chickweed [9]) [%] | pest or weed control at 17933.6 g/ha (Crabgrass [10]) [%] | pest or weed control at 17933.6 g/ha (Velvetleaf [11]) [%] | pest or weed control at 17933.6 g/ha (Lambsquarters [12]) [%] | pest or weed control at 17933.6 g/ha (Barnyard Grass [13]) [%] | pest or weed control at 17933.6 g/ha (Wild Oats [14]) [%] | pest or weed control at 17933.6 g/ha (Cheatgrass [15]) [%] | pest or weed control at 17933.6 g/ha (Yellow Rocket [16]) [%] | pest or weed control at 17933.6 g/ha (Alfalfa [17]) [%] | pest or weed control at 17933.6 g/ha (Foxtail [18]) [%] | pest or weed control at 8966.8 g/ha (Nutgrass [19]) [%] | pest or weed control at 8966.8 g/ha (Pigweed [20]) [%] | further results |
| --- | --- | --- | --- | --- | --- | --- | --- | --- | --- | --- | --- | --- | --- | --- | --- | --- | --- | --- | --- | --- | --- |
| O=c1[nH]c2ncccc2c(=O)n1C1CCCCC1 [3-cyclohexyl-pyrido[2,3-d]pyrimidine-2,4-(1H,3H)-dione] | no appreciable herbicidal activity | – | – | – | – | – | – | – | – | – | – | – | – | – | – | – | – | – | – | – | – |
| CC(C)n1c(=O)[nH]c2ncccc2c1=O [3-isopropyl-pyrido[2,3-d]pyrimidine-2,4(1H,3H)-dione] | no appreciable herbicidal activity | – | – | – | – | – | – | – | – | – | – | – | – | – | – | – | – | – | – | – | order of herbicidal activity ([1]; in vivo): no appreciable activity |
| CC(C)n1c(=O)[nH]c2cnccc2c1=O [3-isopropyl-pyrido[3,4-d]pyrimidine-2,4(1H,3H)-dione] | no appreciable herbicidal activity | – | – | – | – | – | – | – | – | – | – | – | – | – | – | – | – | – | – | – | – |
| CC(C)n1c(=O)[nH]c2ccncc2c1=O [3-isopropyl-pyrido[4,3-d]pyrimidine-2,4(1H,3H)-dione] | no appreciable herbicidal activity | – | – | – | – | – | – | – | – | – | – | – | – | – | – | – | – | – | – | – | – |
| O=c1[nH]c2ncccc2c(=O)n1-c1ccccc1 [3-phenyl-pyrido[2,3-d]pyrimidine-2,4(1H,3H)-dione] | no appreciable herbicidal activity | – | – | – | – | – | – | – | – | – | – | – | – | – | – | – | – | – | – | – | – |
| O=c1[nH]c2nccnc2c(=O)n1C1CCCCC1 [Lumazine, 3-cyclohexyl] | – | 100 | 100 | 100 | 100 | 40 | 30 | 90 | 100 | 80 | 100 | 100 | 20 | 20 | 10 | 100 | 100 | 20 | 100 | 90 | pest or weed control at 8966.8 g/ha (Snapbeans [21]): 100%; pest or weed control at 8966.8 g/ha (Cucumber [22]): 100%; plant injury at 8966.8 g/ha (Corn [23]): 10%; pest or weed control at 8966.8 g/ha (Johnsongrass [24]): 20%; pest or weed control at 8966.8 g/ha (Curled Dock [25]): 100%; pest or weed control at 8966.8 g/ha (Chickweed [26]): 90%; pest or weed control at 8966.8 g/ha (Crabgrass [27]): 20%; pest or weed control at 8966.8 g/ha (Velvetleaf [28]): 100%; pest or weed control at 8966.8 g/ha (Lambsquarters [29]): 100%; pest or weed control at 8966.8 g/ha (Barnyard Grass [30]): 10%; pest or weed control at 8966.8 g/ha (Wild Oats [31]): 10%; pest or weed control at 8966.8 g/ha (Cheatgrass [32]): 50%; pest or weed control at 8966.8 g/ha (Yellow Rocket [33]): 100%; pest or weed control at 8966.8 g/ha (Alfalfa [34]): 100%; pest or weed control at 8966.8 g/ha (Foxtail [35]): 10% |
| CCC(C)n1c(=O)[nH]c2nccnc2c1=O (stereo not drawn) [Lumazine, 3-sec-butyl] | – | 40 | 100 | 90 | 10 | 10 | 40 | 70 | 40 | 100 | 100 | 100 | 40 | 30 | 90 | 100 | 100 | 30 | 0 | 20 | pest or weed control at 8966.8 g/ha (Snapbeans [21]): 20%; pest or weed control at 8966.8 g/ha (Cucumber [22]): 60%; plant injury at 8966.8 g/ha (Corn [23]): 0%; pest or weed control at 8966.8 g/ha (Johnsongrass [24]): 0%; pest or weed control at 8966.8 g/ha (Curled Dock [25]): 50%; pest or weed control at 8966.8 g/ha (Chickweed [26]): 0%; pest or weed control at 8966.8 g/ha (Crabgrass [27]): 0%; pest or weed control at 8966.8 g/ha (Velvetleaf [28]): 90%; pest or weed control at 8966.8 g/ha (Lambsquarters [29]): 100%; pest or weed control at 8966.8 g/ha (Barnyard Grass [30]): 0%; pest or weed control at 8966.8 g/ha (Wild Oats [31]): 0%; pest or weed control at 8966.8 g/ha (Cheatgrass [32]): 0%; pest or weed control at 8966.8 g/ha (Yellow Rocket [33]): 100%; pest or weed control at 8966.8 g/ha (Alfalfa [34]): 50%; pest or weed control at 8966.8 g/ha (Foxtail [35]): 0% |
| O=c1[nH]c(=O)c2ncccc2[nH]1 [pyrido[3,2-d]pyrimidine-2,4(1H,3H)-dione, reference compound] | – | 0 | 0 | 0 | 0 | 0 | 0 | 0 | 0 | 0 | 0 | 0 | 0 | 0 | 0 | 0 | 0 | 0 | 0 | 0 | pest or weed control at 8966.8 g/ha (Snapbeans [21]): 0%; pest or weed control at 8966.8 g/ha (Cucumber [22]): 0%; plant injury at 8966.8 g/ha (Corn [23]): 0%; pest or weed control at 8966.8 g/ha (Johnsongrass [24]): 0%; pest or weed control at 8966.8 g/ha (Curled Dock [25]): 0%; pest or weed control at 8966.8 g/ha (Chickweed [26]): 0%; pest or weed control at 8966.8 g/ha (Crabgrass [27]): 0%; pest or weed control at 8966.8 g/ha (Velvetleaf [28]): 0%; pest or weed control at 8966.8 g/ha (Lambsquarters [29]): 0%; pest or weed control at 8966.8 g/ha (Barnyard Grass [30]): 0%; pest or weed control at 8966.8 g/ha (Wild Oats [31]): 0%; pest or weed control at 8966.8 g/ha (Cheatgrass [32]): 0%; pest or weed control at 8966.8 g/ha (Yellow Rocket [33]): 0%; pest or weed control at 8966.8 g/ha (Alfalfa [34]): 0%; pest or weed control at 8966.8 g/ha (Foxtail [35]): 0% |

From patent US3960877A, “N-monosubstituted-2,3-pyridinedicarboxamides, and related compounds” (priority 1974, dated 1976)
